Data published in PubChem BioAssay AID248 (DTP/NCI, 2004).
Values joined by “and” are separate entries in the source; they are usually repeats but may differ in a detail not shown here. Equal entries are not always repeated. Toxic doses and inconclusive results are not listed. Rule as the data show it: active = T/C of 150% or more; inactive = T/C below 125%.

Tested on: L1210 leukemia ip in BDF1 mice, survival T/C
Assay: NCI In Vivo Anticancer Drug Screen. Data for tumor model L1210 Leukemia (intraperitoneal) in B6D2F1 (BDF1) mice
Settings: endpoint: mean survival time, higher = longer survival
In short: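 Ratio derived from survival: compound-dosed mice over vehicle-dosed mice, all bearing a transplantable tumor.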

[1] = dose: 5.0 mg/kg/injection, schedule: Q01DX001 (ip), vehicle: saline
[2] = dose: 10.0 mg/kg/injection, schedule: Q01DX001 (ip), vehicle: saline
[3] = dose: 100.0 mg/kg/injection, schedule: Q04DX003 (ip), vehicle: Klucel (hydroxypropylcellulose) (HPC)
[4] = dose: 200.0 mg/kg/injection, schedule: Q04DX003 (ip), vehicle: Klucel (hydroxypropylcellulose) (HPC)
[5] = dose: 400.0 mg/kg/injection, schedule: Q04DX003 (ip), vehicle: Klucel (hydroxypropylcellulose) (HPC)
[6] = dose: 12.5 mg/kg/injection, schedule: Q04DX002 (ip), vehicle: saline
[7] = dose: 25.0 mg/kg/injection, schedule: Q04DX002 (ip), vehicle: saline
[8] = dose: 100.0 mg/kg/injection, schedule: Q01DX001 (ip), vehicle: carboxymethylcellulose (CMC)
[9] = dose: 200.0 mg/kg/injection, schedule: Q01DX001 (ip), vehicle: carboxymethylcellulose (CMC)
[10] = dose: 400.0 mg/kg/injection, schedule: Q01DX001 (ip), vehicle: carboxymethylcellulose (CMC)
[11] = dose: 100.0 mg/kg/injection, schedule: Q04DX003 (ip), vehicle: saline with Tween-80
[12] = dose: 200.0 mg/kg/injection, schedule: Q04DX003 (ip), vehicle: saline with Tween-80
[13] = dose: 400.0 mg/kg/injection, schedule: Q04DX003 (ip), vehicle: saline with Tween-80
[14] = dose: 100.0 mg/kg/injection, schedule: Q01DX001 (ip), vehicle: saline with Tween-80
[15] = dose: 200.0 mg/kg/injection, schedule: Q01DX001 (ip), vehicle: saline with Tween-80
[16] = dose: 100.0 mg/kg/injection, schedule: Q01DX009 (ip), vehicle: Klucel (hydroxypropylcellulose) (HPC)
[17] = dose: 200.0 mg/kg/injection, schedule: Q01DX009 (ip), vehicle: Klucel (hydroxypropylcellulose) (HPC)
[18] = dose: 400.0 mg/kg/injection, schedule: Q01DX009 (ip), vehicle: Klucel (hydroxypropylcellulose) (HPC)
[19] = dose: 100.0 mg/kg/injection, schedule: Q01DX001 (ip), vehicle: saline
[20] = dose: 200.0 mg/kg/injection, schedule: Q01DX001 (ip), vehicle: saline
[21] = dose: 400.0 mg/kg/injection, schedule: Q01DX001 (ip), vehicle: saline
[22] = dose: 100.0 mg/kg/injection, schedule: Q04DX002 (ip), vehicle: Klucel (hydroxypropylcellulose) (HPC)
[23] = dose: 200.0 mg/kg/injection, schedule: Q04DX002 (ip), vehicle: Klucel (hydroxypropylcellulose) (HPC)
[24] = dose: 400.0 mg/kg/injection, schedule: Q04DX002 (ip), vehicle: Klucel (hydroxypropylcellulose) (HPC)

Measured: T/C

OC(c1cccc(C(O)(C(F)(F)F)C(F)(F)F)c1)(C(F)(F)F)C(F)(F)F
inactive: [1] 97 % of control | [2] 92 % of control | dose: 20.0 mg/kg/injection, schedule: Q01DX001 (ip), vehicle: saline 100 % of control | dose: 40.0 mg/kg/injection, schedule: Q01DX001 (ip), vehicle: saline 93 % of control

C[N+]1(C)CC2CCCCC1C2O (configuration not stated)
inactive: dose: 75.0 mg/kg/injection, schedule: Q01DX001 (ip), vehicle: saline 108 % of control | dose: 150.0 mg/kg/injection, schedule: Q01DX001 (ip), vehicle: saline 104 % of control

O=C1c2cccnc2C(=O)N1Cc1ccccc1
inactive: dose: 100.0 mg/kg/injection, schedule: Q01DX009 (ip), vehicle: saline sonified 103 % of control | [3] 107 % of control | dose: 200.0 mg/kg/injection, schedule: Q01DX009 (ip), vehicle: saline sonified 96 % of control | [4] 103 % of control | dose: 400.0 mg/kg/injection, schedule: Q01DX009 (ip), vehicle: saline sonified 102 % of control | [5] 102 % of control

CCCNC(c1ccccc1)=[N+]1CCCCC1
inactive: [6] 95 % of control | [7] 98 % of control

O=[N+]([O-])c1ccc(-n2ncc3cccnc32)c([N+](=O)[O-])c1
inactive: dose: 75.0 mg/kg/injection, schedule: Q01DX001 (ip), vehicle: other 94 % of control | dose: 150.0 mg/kg/injection, schedule: Q01DX001 (ip), vehicle: other 100 % of control | dose: 300.0 mg/kg/injection, schedule: Q01DX001 (ip), vehicle: other 90 % of control

O=C1CCC/C1=C/c1ccccc1
inactive: [8] 97 % of control | [3] 93 % of control | [9] 91 % of control | [4] 95 % of control | [10] 91 % of control | [5] 88 % of control

Cc1c(Cl)c(Cl)c(Cl)c(Cl)c1Cl
inactive: [11] 101 % of control | [12] 95 % of control | [13] 95 % of control

CC1=C(Cl)CS(=O)(=O)C1
inactive: [14] 104 % of control | [15] 100 % of control

Cc1nc2cccc3ccc4c5ccccc5cc1c4c32
inactive: [11] 92 % of control | [12] 92 % of control | [13] 87 % of control

COC(=O)c1ccccc1NC(=O)Nc1cc(Cl)ccc1OC
inactive: [16] 89 % of control | [3] 106 % of control | [17] 103 % of control | [4] 90 % of control | [18] 107 % of control | [5] 95 % of control

C=C1CC23CC[C@H]4[C@@](C)(CCC[C@@]4(C)C(=O)OC4OC(CO)C(O)C(O)C4O)[C@@H]2CC[C@@]1(OC1OC(CO)C(O)C(O)C1OC1OC(CO)C(O)C(O)C1O)C3 (some centres not stated)
inactive: [14] 101 % of control | [15] 93 % of control | dose: 400.0 mg/kg/injection, schedule: Q01DX001 (ip), vehicle: saline with Tween-80 96 % of control

Nc1cc(Cl)c2ncn(C3OC(CO)C(O)C3O)c2n1 (configuration not stated)
inactive: [19] 98 % of control | dose: 100.0 mg/kg/injection, schedule: Q01DX005 (ip), vehicle: saline 110 % of control | [20] 101 % of control | dose: 200.0 mg/kg/injection, schedule: Q01DX005 (ip), vehicle: saline 115 % of control | [21] 114 % of control

COc1ccc(Cl)cc1NS(=O)(=O)c1cccc([N+](=O)[O-])c1
inactive: [16] 96 % of control | [17] 98 % of control | [18] 91 % of control

O=C(O)c1ccccc1C(=O)OC1CCCC2CCCC21 (configuration not stated)
inactive: [8] 95 % of control and 96 % of control | [9] 101 % of control and 98 % of control | [10] 90 % of control and 98 % of control

CC(C)CC(NC(=O)CNC(=O)CNC(=O)OCc1ccccc1)C(=O)O (configuration not stated)
inactive: [11] 100 % of control | [12] 103 % of control | [13] 105 % of control

CC(C)(C)C1CCC(Br)C(Cl)C1 (configuration not stated)
inactive: dose: 100.0 mg/kg/injection, schedule: Q01DX009 (ip), vehicle: saline 98 % of control | dose: 200.0 mg/kg/injection, schedule: Q01DX009 (ip), vehicle: saline 105 % of control | dose: 400.0 mg/kg/injection, schedule: Q01DX009 (ip), vehicle: saline 100 % of control

Cc1cc(C)nc(N)c1
inactive: [6] 105 % of control | [7] 114 % of control

O=NN(CCCl)C(=O)Nc1ccccc1Cl
inactive: [8] 87 % of control

COc1ccc2c(c1)N(C)CCCC2=O
inactive: dose: 100.0 mg/kg/injection, schedule: Q04DX003 (ip), vehicle: saline 96 % of control | dose: 200.0 mg/kg/injection, schedule: Q04DX003 (ip), vehicle: saline 112 % of control | dose: 400.0 mg/kg/injection, schedule: Q04DX003 (ip), vehicle: saline 87 % of control

CCCCOC(=O)CC(=O)OCCCC
inactive: [16] 96 % of control | [3] 88 % of control | [4] 95 % of control | [18] 86 % of control | [5] 97 % of control

Cc1nn(C)c(Cl)c1[N+](=O)[O-]
inactive: [16] 102 % of control | [22] 102 % of control | [17] 97 % of control | [23] 91 % of control | [18] 100 % of control | [24] 94 % of control

C#CC1(OC(C)=O)CCCCC1
inactive: [19] 102 % of control | [11] 105 % of control | [20] 95 % of control | [12] 98 % of control | [21] 100 % of control | [13] 93 % of control

Cc1ncc(C(=O)O)s1
inactive: [3] 90 % of control | [4] 95 % of control | [5] 98 % of control

CCCCC#CC(=O)OC(C)CC (configuration not stated)
inactive: dose: 100.0 mg/kg/injection, schedule: Q04DX002 (ip), vehicle: saline 104 % of control | dose: 200.0 mg/kg/injection, schedule: Q04DX002 (ip), vehicle: saline 92 % of control | dose: 400.0 mg/kg/injection, schedule: Q04DX002 (ip), vehicle: saline 101 % of control

CSP(N)(N)=O
inactive: [1] 97 % of control | [2] 103 % of control

O=c1[nH]c(SCc2cccc([N+](=O)[O-])c2)nc2nc[nH]c12
inactive: dose: 50.0 mg/kg/injection, schedule: Q01DX001 (ip), vehicle: Klucel (hydroxypropylcellulose) (HPC) 96 % of control | dose: 100.0 mg/kg/injection, schedule: Q01DX001 (ip), vehicle: Klucel (hydroxypropylcellulose) (HPC) 100 % of control | dose: 200.0 mg/kg/injection, schedule: Q01DX001 (ip), vehicle: Klucel (hydroxypropylcellulose) (HPC) 107 % of control

c1ccc2nc3ccccc3c-2cc1
inactive: dose: 100.0 mg/kg/injection, schedule: Q04DX003 (ip), vehicle: acetone 95 % of control | dose: 200.0 mg/kg/injection, schedule: Q04DX003 (ip), vehicle: acetone 98 % of control | dose: 400.0 mg/kg/injection, schedule: Q04DX003 (ip), vehicle: acetone 95 % of control

CCOC(=O)N/N=C/c1ccc(O)cc1
inactive: [22] 91 % of control | [23] 102 % of control | [24] 91 % of control
